Structures are written as SMILES. pIC50: −log10 of the molar value.

The experiment addresses Indoleamine 2,3-dioxygenase 1 (Homo sapiens, UniProt P14902). The experiment in a line: Indoleamine-2,3-Dioxygenase 1 Inhibitory Activity: Experimental method: IDO-1 can oxidatively cleave the indole ring of tryptophan to form N-formylkynurenine. Referring to the method in the literature (Eddy W. Yue, et al. J. Med. Chem. 2009, 52, 7364-7367), 20 nM IDO-1, 2 mM D-tryptophan, 20 mM ascorbic acid, 3.5M methyl blue and 0.2 mg/mL antioxidant enzyme were sequentially added to 50 mM potassium phosphate buffer at room temperature. Due to the formation of N-formylkynurenine, the reaction rate was recorded by the increasing absorbance of the solution at 321 nm. IC50 values were calculated using Prism GraphPad software.

Indoleamine 2,3-dioxygenase 1, sequence (P14902 whole entry): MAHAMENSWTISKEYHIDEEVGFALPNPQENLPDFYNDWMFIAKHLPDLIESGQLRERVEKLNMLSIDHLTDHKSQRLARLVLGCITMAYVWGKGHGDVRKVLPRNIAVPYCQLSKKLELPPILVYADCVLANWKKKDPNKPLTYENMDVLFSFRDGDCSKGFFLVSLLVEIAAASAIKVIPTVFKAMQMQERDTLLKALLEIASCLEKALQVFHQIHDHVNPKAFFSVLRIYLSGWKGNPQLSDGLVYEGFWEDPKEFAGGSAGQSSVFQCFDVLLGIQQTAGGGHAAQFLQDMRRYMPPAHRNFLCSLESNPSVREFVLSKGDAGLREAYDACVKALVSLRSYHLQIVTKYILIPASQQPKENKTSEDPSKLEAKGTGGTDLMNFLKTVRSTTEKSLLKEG

Take `O=C1c2cc(F)ccc2-n2c1nc1ncccc1c2=O`: the pIC50 (in general, the negative decadic logarithm of the IC50, by convention in mol/L) is 7.00 to 9.00.

On to `O=C1c2cc(Cl)ccc2-n2c1nc1ncccc1c2=O`, for which the pIC50 was 7.00 to 9.00.

With `O=C1c2cc(OC(F)(F)F)ccc2-n2c1nc1ncccc1c2=O`, the pIC50 is 7.00 to 9.00.

`O=C1c2cc([N+](=O)[O-])ccc2-n2c1nc1ncccc1c2=O`: the pIC50 is 7.00 to 9.00.

As to `CN(C)C(=S)NN=C1c2cc([N+](=O)[O-])ccc2-n2c1nc1ncccc1c2=O`, the pIC50 was 7.00 to 9.00.

Regarding `CN(C)CCON=C1c2cc([N+](=O)[O-])ccc2-n2c1nc1ncccc1c2=O`, the pIC50 is 7.00 to 9.00.

Turning to `NC(=S)NN=C1c2cc([N+](=O)[O-])ccc2-n2c1nc1ncccc1c2=O`, the pIC50 is 7.00 to 9.00.

With `O=C1c2cnccc2-n2c1nc1ncccc1c2=O`, the pIC50 was 7.00 to 9.00.

As to `N=C(N)NN=C1c2cc([N+](=O)[O-])ccc2-n2c1nc1ncccc1c2=O`, the pIC50 is 7.00 to 9.00.
